Measured values reported in the supplement of paper PMC11061612.

Columns and labels:
Experiment in all cases: combination Emax (second highest fraction inhibited in the dose matrix, 72 h); higher = more inhibition; extreme values may be limits of the assay
[1] = test system: MDST8 (Colorectal Carcinoma)
Summary of the method: (§1)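 After 24 hours at 37°C and 5% CO2 in 1536-well plates, cells in DMEM/F12 or RPMI plus 10% FBS received two-drug dose matrices for 72 hours. Viability came from CellTiter-Glo 2.0 luminescence and was scaled as inhibition, anchored at 0 by vehicle wells and at 1 by blank wells. Combination Emax is taken as the second-highest inhibition in the matrix, and Bliss excess as the observed combination effect less EA + EB − EA·EB, with EA and EB the single-agent effects.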

[2] = test system: COLO-320-HSR (Colorectal Carcinoma)
Summary of the method: as §1

[3] = test system: COR-L311 (Small Cell Lung Carcinoma)
Summary of the method: as §1

[4] = test system: KARPAS-422 (B-Cell Non-Hodgkin's Lymphoma)
Summary of the method: as §1

[5] = test system: NCI-H2066 (Squamous Cell Lung Carcinoma)
Summary of the method: as §1

[6] = test system: SK-MES-1 (Squamous Cell Lung Carcinoma)
Summary of the method: as §1

[7] = test system: PANC-10-05 (Pancreatic Carcinoma)
Summary of the method: as §1

[8] = test system: A498 (Kidney Carcinoma)
Summary of the method: as §1

[9] = test system: ARH-77 (Non-Cancerous)
Summary of the method: as §1

[10] = test system: 8-MG-BA (Glioblastoma)
Summary of the method: as §1

[11] = test system: Hs-445 (Non-Cancerous)
Summary of the method: as §1

[12] = test system: NCI-H2141 (Small Cell Lung Carcinoma)
Summary of the method: as §1

[13] = test system: ECC10 (Gastric Carcinoma)
Summary of the method: as §1

[14] = test system: A3-KAW (B-Cell Non-Hodgkin's Lymphoma)
Summary of the method: as §1

[15] = test system: TT2609-C02 (Thyroid Gland Carcinoma)
Summary of the method: as §1

[16] = test system: NCI-H64 (Small Cell Lung Carcinoma)
Summary of the method: as §1

[17] = test system: IGR-37 (Melanoma)
Summary of the method: as §1

[18] = test system: NCI-H2591 (Mesothelioma)
Summary of the method: as §1

[19] = test system: BICR22 (Oral Cavity Carcinoma)
Summary of the method: as §1

[20] = test system: NCI-H1693 (Lung Adenocarcinoma)
Summary of the method: as §1

| Compound | combination Emax [1] | combination Emax [2] | combination Emax [3] | combination Emax [4] | combination Emax [5] | combination Emax [6] | combination Emax [7] | combination Emax [8] | combination Emax [9] | combination Emax [10] | combination Emax [11] | combination Emax [12] | combination Emax [13] | combination Emax [14] | combination Emax [15] | combination Emax [16] | combination Emax [17] | combination Emax [18] | combination Emax [19] | combination Emax [20] |
| --- | --- | --- | --- | --- | --- | --- | --- | --- | --- | --- | --- | --- | --- | --- | --- | --- | --- | --- | --- | --- |
| COc1cccc(OCCCN)c1-c1cc(Nc2cnc(C#N)cn2)n[nH]1 [Prexasertib] + CN(C)CCCOc1ccc(-c2ccc3ncc4c(c3c2)n(C2CCOCC2)c(=O)n4C)cn1 [AZD0156] (first compound max 1 µM, 7x7, partner max 1 µM) | 0.957 | 0.691 | 0.77 | 0.904 | 0.402 | 0.77 | 0.4 | 0.725 | 1 | 0.934 | 0.97 | 0.568 | 0.671 | 1 | 0.335 | 0.787 | 0.912 | 0.305 | 0.742 | 0.398 |
| COc1cccc(OCCCN)c1-c1cc(Nc2cnc(C#N)cn2)n[nH]1 [Prexasertib] + O=C(c1cc(Cc2n[nH]c(=O)c3ccccc23)ccc1F)N1CCN(C(=O)C2CC2)CC1 [Olaparib] (first compound max 1 µM, 7x7, partner max 10 µM) | 0.937 | 0.522 | 0.803 | 0.92 | 0.316 | 0.834 | 0.31 | 0.591 | 0.969 | 0.969 | 0.949 | 0.617 | 0.728 | 1 | 0.329 | 0.835 | 0.961 | 0.21 | 0.78 | 0.357 |
| COc1cccc(OCCCN)c1-c1cc(Nc2cnc(C#N)cn2)n[nH]1 [Prexasertib] + C[C@@H]1COCCN1C2=NC(=NC(=C2)C3(CC3)[S@](=N)(=O)C)C4=C5C=CNC5=NC=C4 [AZD6738] (first compound max 1 µM, 7x7, partner max 10 µM) | 0.943 | 0.726 | 0.771 | 0.88 | 0.454 | 0.842 | 0.46 | 0.692 | 1 | 0.926 | 0.951 | 0.573 | 0.712 | 1 | 0.263 | 0.835 | 0.896 | 0.519 | 0.789 | 0.389 |
| COc1nnc2ccc(N3CCC(c4ccc(OCCN5CCN(C)C(=O)[C@H]5C)cc4)CC3)nn12 [AZD5153] + Cc1c2c(nn1C)CSCc1cc(n(C)n1)CSc1cc(c3ccccc3c1)OCCCc1c(C(=O)O)n(C)c3c-2c(Cl)ccc13 [AZD5991] (first compound max 1 µM, 7x7, partner max 1 µM) | 0.355 | 0.89 | 0.971 | 0.991 | 0.35 | 0.558 | 0.515 | 0.529 | 0.831 | 0.94 | 0.618 | 0.346 | 1 | 1 | 0.454 | 0.399 | 0.949 | 0.368 | 0.901 | 0.56 |
| COc1nnc2ccc(N3CCC(c4ccc(OCCN5CCN(C)C(=O)[C@H]5C)cc4)CC3)nn12 [AZD5153] + CCN(CCO)CCCOc1ccc2c(Nc3cc(CC(=O)Nc4cccc(F)c4)[nH]n3)ncnc2c1 [AZD2811] (first compound max 1 µM, 7x7, partner max 1 µM) | 0.466 | 0.503 | 0.936 | 0.676 | 0.344 | 0.507 | 0.554 | 0.459 | 0.82 | 0.74 | 0.509 | 0.297 | 0.884 | 1 | 0.492 | 0.609 | 0.597 | 0.429 | 0.463 | 0.46 |
| Cc1c2c(nn1C)CSCc1cc(n(C)n1)CSc1cc(c3ccccc3c1)OCCCc1c(C(=O)O)n(C)c3c-2c(Cl)ccc13 [AZD5991] + C[C@@H](Nc1cc(F)cc(F)c1)c1cc(C(=O)N(C)C)cc2c(=O)cc(N3CCOCC3)oc12 [AZD8186] (first compound max 1 µM, 7x7, partner max 3 µM) | 0.265 | 0.907 | 0.508 | 0.94 | 0.343 | 0.381 | 0.311 | 0.742 | 0.928 | 0.734 | 0.929 | 0.3 | 0.721 | 1 | 0.303 | 0.406 | 0.325 | 0.196 | 0.537 | 0.236 |
